Measurements published in US20060025458A1, “Alkylammonium compounds as antifungal and antitrypanosomal agents” (University of Connecticut, priority 2004, published 2006).

Columns and labels:
[1] = tested on: S. cerevisiae; test: Liquid growth inhibition assay of S. cerevisiae (OD600); type: cell-based, Saccharomyces cerevisiae
Procedure: Strains and Growth Conditions: Wild-type (BY4741: Mata his3Δ1 leu2Δ0 met15Δ0 ura3Δ0) and mutant (hnm1Δ, psd1Δ, cki1Δ, pem1Δ, ept1Δ, cpt1Δ, eki1Δ, psd2Δ, pct1Δ, ect1Δ, pem2Δ) S. cerevisiae strains used in this study were purchased from Research Genetics (Invitrogen, USA). These strains were grown on YPD (1% yeast extract, 2% dextrose and 2% peptone) or synthetic complete medium (SD, 1.7% yeast nitrogen base, 5% ammonium sulfate and 2% dextrose). The Nigerian strain of P. falciparum was propagated in human red blood cells at 4% hematocrit by the method of Trager and Jensen (1976). Plate growth assays were performed by growing wild-type and mutant yeast strains in YPD to mid-log phase. Cultures were serially diluted 1:10 starting with a density of 3×10^7 cells/ml. The growth of cells was monitored by spotting 3 μl of each dilution onto solid medium in the absence or presence of 5 μM of G25.
Twenty-one analogs including first, second and third generation (E2a, E6, E9, E13, E24, F4, G2, G4, G5, G14, GI5, G25, H5, L1, L4, M34, M53, MS1, T3 and T4) compounds (provided by Dr. Henri Vial, City, Country) were tested (FIG. 4). The choice of the compounds was such that they represent all possible structural features introduced during the optimization process for enhancing antimalarial activity as determined using the combinatorial chemistry techniques.
The antimalarial drug G25 inhibits the growth of Saccharomyces cerevisiae. […] Growth inhibition was assessed by measuring the OD600 and comparing it to that of the wild-type strain grown under the same conditions in the absence of the compound. […] This IC50 value is in the range of the predicted intracellular concentration of G25 in P. falciparum due to the accumulative properties inside the infected erythrocytes.

[2] = tested on: promastigote form of L. major; test: Growth inhibition of Leishmania major promastigotes; type: cell-based; details: read-out: IC50 of choline analogs in Leishmania major, WT
Procedure: For those drugs, IC50 values were determined.

[3] = tested on: de novo CDP-choline pathway (PtdCho synthesis from choline); test: Incorporation of labeled choline into PtdCho in P. falciparum-infected erythrocytes; type: cell-based, Plasmodium falciparum
Procedure: FIG. 10A. […] 5-6×10^7 synchronized P. falciparum-infected erythrocytes (7% trophozoite stage) were pre-incubated at 4% haematocrit for 1 h in RPMI-based medium containing the indicated concentration of G25 before adding 30 μM [methyl-^3H]-choline (334 mCi/mmol). After incubation at 37° C. for 3 h, the cellular lipids were extracted and fractionated on TLC plates for quantification of radioactivity in PtdCho (black squares).
(§1) Labeling Studies and Phospholipid Analysis in P. falciparum: Nigerian strains of P. falciparum were asexually cultured in the presence of basic medium (RPMI 1640 supplemented with 25 mM Hepes, pH 7.4) and 10% AB^+ human serum (Trager and Jensen, 1976). Parasite synchronization was obtained with three successive 5% sorbitol treatments (Lambros and Vanderberg, 1979). Synchronized P. falciparum-infected erythrocytes (7-10% parasitemia, trophozoites) were pre-incubated for 1 hour at 37° C. at 4% hematocrit in 2 ml (final volume) basic medium in the absence or the presence of different concentrations of the compound G25. The appropriate radioactive precursor of lipid metabolism was added followed by further 3 h of incubation. Radioactive precursors were used as follows: 30 μM [methyl-^3H]-choline (334 mCi/mmol), 2 μM [^3H]-ethanolamine (2 Ci/mmol) and 10 μM [3-^14C]-serine (57 mCi/mmol). Following incubation with radiolabeled precursors, cells were concentrated by centrifugation at 1,200×g for 5 min at 4° C., washed twice and the cellular lipids were extracted by a mixture of chloroform/methanol (Folch, et al., 1957) and the organic phase was evaporated under air. […] The silica gel of the lipid spots were scraped directly into scintillation vials containing 3 ml of liquid-scintillation fluid and counted in a Beckman LS 5000 spectrophotometer. The amount of labeled precursors incorporated into cellular lipids (nmol×10^7 cell^−1×h^−1) was computed on the basis of radioactivity incorporated into lipids and the specific activity of the precursors in the incubation medium. […]

[4] = tested on: de novo biosynthesis of PtdEtn from ethanolamine; test: Incorporation of radiolabeled ethanolamine into PtdEtn in P. falciparum-infected erythrocytes; type: cell-based, Plasmodium falciparum; details: concentrations up to 100 μM
Procedure: as §1, with “mCi/mmol).” for “mCi/mmol). Following incubation with radiolabeled precursors, cells were concentrated by centrifugation at 1,200×g for 5 min at 4° C., washed twice and the cellular lipids were extracted by a mixture of chloroform/methanol (Folch, et al., 1957) and the organic phase was evaporated under air.”

[5] = tested on: endogenous PtdSer decarboxylase activity; test: Serine labeling: PtdEtn formation from PtdSer in P. falciparum-infected erythrocytes; type: cell-based, Plasmodium falciparum
Procedure: FIG. 10B. Effect of G25 on PtdEtn and PtdSer synthesis from serine. 5-6×10^7 synchronized P. falciparum-infected erythrocytes (7% trophozoite stage) were pre-incubated at 4% haematocrit for 1 h in RPMI-based medium containing the indicated concentration of G25 before adding 10 μM [^14C]-serine (57 mCi/mmol). After incubation at 37° C. for 3 h, the cellular lipids were extracted and fractionated on TLC plates for quantification of radioactivity in PtdSer (black diamonds), and PtdEtn (white circles).
Labeling Studies and Phospholipid Analysis in P. falciparum: Nigerian strains of P. falciparum were asexually cultured in the presence of basic medium (RPMI 1640 supplemented with 25 mM Hepes, pH 7.4) and 10% AB^+ human serum (Trager and Jensen, 1976). Parasite synchronization was obtained with three successive 5% sorbitol treatments (Lambros and Vanderberg, 1979). Synchronized P. falciparum-infected erythrocytes (7-10% parasitemia, trophozoites) were pre-incubated for 1 hour at 37° C. at 4% hematocrit in 2 ml (final volume) basic medium in the absence or the presence of different concentrations of the compound G25. The appropriate radioactive precursor of lipid metabolism was added followed by further 3 h of incubation. […] The silica gel of the lipid spots were scraped directly into scintillation vials containing 3 ml of liquid-scintillation fluid and counted in a Beckman LS 5000 spectrophotometer. The amount of labeled precursors incorporated into cellular lipids (nmol×10^7 cell^−1×h^−1) was computed on the basis of radioactivity incorporated into lipids and the specific activity of the precursors in the incubation medium.
The possible inhibition of PtdSer decarboxylase activity in P. falciparum by G25 was investigated. P. falciparum-infected erythrocytes were labeled with radiolabeled serine, which is readily incorporated into PtdSer, in the presence or absence of increasing concentrations of G25, and the effect of this compound on the parasite endogenous PtdSer decarboxylase activity was measured by following the formation of PtdEtn from PtdSer (FIG. 10B). […]

[6] = tested on: P. falciparum; details: cited from earlier work
[7] = tested on: P. falciparum-infected erythrocytes; details: after 3 h incubation; cited from earlier work
[8] = tested on: P. falciparum and P. cynomolgi; details: very low doses; cited from earlier work

C[N+]1(CCCCCCCCCCCCCCCC[N+]2(C)CCCC2)CCCC1.[Br-].[Br-] [G25, 1,16-hexadecamethylenebis[N-methylpyrrolidinium]dibromide]
Inhibition of S. cerevisiae growth (in words) ([1]; structure-activity comparison, Examples 2-4): inhibited
IC50 ([1]; wild-type strain BY4741, 1×10^4 cells/ml, liquid medium, 30° C., 16 h, read-out: IC50, inhibition of yeast growth): 2500 nM
IC50 [2]: 8100 nM
inhibition of PtdCho biosynthesis ([3]; 1 μM G25): 56%
inhibition of PtdCho biosynthesis ([3]; 10 μM G25): nearly complete inhibition
concentration causing a significant decrease of PtdCho biosynthesis ([3]; trophozoite-infected erythrocytes): higher than 0.1 μM
effect on incorporation of radiolabeled ethanolamine into PtdEtn [4]: no effect
decrease in the pool of PtdEtn formed from PtdSer ([5]; 100 μM G25): 77%
effect on first step of the CDP-DAG pathway catalyzed by PtdSer synthase ([5]; 100 μM G25): no effect
total incorporation of serine ([5]; increasing concentrations of G25): not affected
IC50 ([6]; in vitro, literature, read-out: IC50, P. falciparum): 1.2 nM
IC90/IC50 ratios ([6]; multidrug resistant laboratory and clinical isolates): less than 3
cellular accumulation ratio (CAR) [7]: ~300
malaria infection in monkeys [8]: cleared malaria infection
